# Reference: patent US10183021B2, “sGC stimulators” (Ironwood Pharmaceuticals, Inc., priority 2013, dated 2019)
# Molecular target: soluble guanylate cyclase (sGC) (Homo sapiens (Human), UniProt Q02108+Q02153)
# Assay: sGC-HEK-cGMP assay, new protocol with DETA-NONOate, LC/MS detection (Example 2C)
# Assay type: cell-based
# Details: HEK293 cells, 10 μM DETA-NONOate, LC/MS detection; concentration eliciting 50% of high control response (30 μM I-329); read-out: Absolute EC50 (uM) - binned
# Experimental: Human embryonic kidney cells (HEK293), endogenously expressing soluble guanylate cyclase (sGC), were used to evaluate the activity of test compounds. Compounds stimulating the sGC enzyme should cause an increase in the intracellular concentration of cGMP. HEK 293 cells were seeded in Dulbecco's Modification of Eagle's Medium supplemented with fetal bovine serum (10% final) and penicillin (100 U/mL)/streptomycin (100 μg/mL) in a 50 μL volume at a density of 1.5×10^4 cells/well in a poly-D-lysine coated 384 well flat bottom plate. Cells were incubated overnight at 37° C. in a humidified chamber with 5% CO2. Medium was aspirated and cells were washed with 1× Hank's Buffered Saline Salt Solution (50 μL). Cells were then incubated for 15 minutes at 37° C. with 50 μL of a 0.5 mM 3-isobutyl-1-methylxanthine (IBMX) solution. Test article and Diethylenetriamine NONOate (DETA-NONOate) solutions (x μM concentration for test article solution and 10 μM concentration for DETA-NONOate solution; wherein x is one of the following concentrations);
# were then added to the assay mixture and the resulting mixture incubated at 37° C. for 20 minutes. After the 20 minute incubation, the assay mixture was aspirated and 10% acetic acid containing 150 ng/mL+3-cGMP (internal standard for LCMS) (50 μL) was added to the cells. The plate was incubated at 4° C. for 30 minutes in the acetic acid solution to stop the reaction and lyse the cells. The plates were then centrifuged at 1,000 g for 3 minutes at 4° C. and the supernatant transferred to a clean reaction plate for LCMS analysis.
# cGMP concentrations were determined from each sample using the LCMS conditions below (Table 5) and calculated standard curve.
# Data were normalized to a high control using the following equation: 100*(Sample−Low Control)/(High Control−Low Control), where the low control is the average of 16 samples treated with 1% DMSO, and the high control is the average of 16 samples treated with 30 μM of 1-329 Data were fit using a 4-parameter fit (log(agonist) vs. response—variable slope) using GraphPad Prism Software v.5. n=2 for all compounds. […] Compounds failing to elicit a minimum response of 50% are reported as >30 μM.
# soluble guanylate cyclase (sGC), sequence (Q02153 whole entry): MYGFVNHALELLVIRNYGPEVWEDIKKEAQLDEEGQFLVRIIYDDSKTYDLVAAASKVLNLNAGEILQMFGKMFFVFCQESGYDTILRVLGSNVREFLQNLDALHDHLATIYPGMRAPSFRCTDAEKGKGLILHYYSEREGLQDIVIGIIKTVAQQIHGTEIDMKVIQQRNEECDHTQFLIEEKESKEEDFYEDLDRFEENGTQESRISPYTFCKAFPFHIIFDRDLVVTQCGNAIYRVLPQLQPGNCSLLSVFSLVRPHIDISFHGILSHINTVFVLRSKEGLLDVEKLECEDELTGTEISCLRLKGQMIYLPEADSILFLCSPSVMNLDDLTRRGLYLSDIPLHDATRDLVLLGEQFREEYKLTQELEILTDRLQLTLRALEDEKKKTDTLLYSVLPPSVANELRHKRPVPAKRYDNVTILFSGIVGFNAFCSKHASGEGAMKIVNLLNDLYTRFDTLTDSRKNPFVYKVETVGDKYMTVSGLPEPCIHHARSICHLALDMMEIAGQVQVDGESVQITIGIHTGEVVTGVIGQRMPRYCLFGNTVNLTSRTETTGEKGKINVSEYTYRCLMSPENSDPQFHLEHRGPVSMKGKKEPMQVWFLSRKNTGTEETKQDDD
# soluble guanylate cyclase (sGC), sequence (Q02108 whole entry): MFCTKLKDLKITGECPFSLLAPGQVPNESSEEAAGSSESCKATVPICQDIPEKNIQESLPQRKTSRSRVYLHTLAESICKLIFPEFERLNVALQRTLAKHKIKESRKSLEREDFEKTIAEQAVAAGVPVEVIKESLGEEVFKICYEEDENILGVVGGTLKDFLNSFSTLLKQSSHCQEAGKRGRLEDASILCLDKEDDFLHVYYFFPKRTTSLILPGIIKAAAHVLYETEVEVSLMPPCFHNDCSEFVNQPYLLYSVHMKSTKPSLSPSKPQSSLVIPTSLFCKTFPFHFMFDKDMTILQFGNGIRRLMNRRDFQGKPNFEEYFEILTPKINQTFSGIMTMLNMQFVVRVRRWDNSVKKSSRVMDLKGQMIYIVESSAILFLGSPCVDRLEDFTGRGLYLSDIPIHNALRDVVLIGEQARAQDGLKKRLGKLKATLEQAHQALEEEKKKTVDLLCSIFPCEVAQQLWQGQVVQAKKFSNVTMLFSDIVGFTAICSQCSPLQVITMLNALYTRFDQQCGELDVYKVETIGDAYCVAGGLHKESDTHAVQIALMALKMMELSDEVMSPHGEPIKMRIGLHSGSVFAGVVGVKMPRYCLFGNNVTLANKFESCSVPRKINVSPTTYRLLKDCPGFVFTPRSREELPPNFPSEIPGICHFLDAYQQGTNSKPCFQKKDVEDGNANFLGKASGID
row,Structure (SMILES),EC50 [µM]
1,O=S(=O)(CC(F)(F)F)Nc1ccnc(-c2cc(-c3ccon3)n(Cc3ccccc3F)n2)n1 [Compound I-444],0.101 to 1

# Same assay, conditions: read-out: Absolute EC50 (uM) - binned
row,Structure (SMILES),EC50 [µM]
1,Fc1ccccc1Cn1nc(-c2ncc(F)c(NC3CCOC3)n2)cc1-c1ccon1 (centres unmarked) [Compound I-578],< 0.1
2,CS(=O)(=O)NC(=O)CNc1nc(-c2cc(-c3ccon3)n(Cc3ccccc3F)n2)ncc1F [Compound I-546],> 1
3,O=C(O)c1cccc2c1CN(c1nc(-c3cc(-c4ccon4)n(Cc4ccccc4F)n3)ncc1F)CC2 [Compound I-339],< 0.1
4,NC(=O)[C@@](O)(CNc1nc(-c2cc(-c3ccon3)n(Cc3ccccc3F)n2)ncc1F)C(F)(F)F [Compound I-530],0.101 to 1
5,CN(CC1(C(=O)O)CC1)c1nc(-c2cc(-c3cscn3)n(Cc3ccccc3F)n2)ncc1F [Compound I-345],< 0.1
6,O=C(CO)Nc1ccnc(-c2cc(-c3ccon3)n(Cc3ccccc3F)n2)n1 [Compound I-499],> 1
7,O=S(=O)(NCCNc1nc(-c2cc(-c3ccon3)n(Cc3ccccc3F)n2)ncc1F)C(F)(F)F [Compound I-392],< 0.1
8,O=C(O)[C@H]1[C@@H](c2ccccc2)CCCN1c1nc(-c2cc(-c3ccon3)n(Cc3ccccc3F)n2)ncc1F [Compound I-319],< 0.1
9,CC(C)(O)CNc1nc(-c2cc(-c3ccon3)n(Cc3ccccc3F)n2)ncc1F [Compound I-325],< 0.1
10,O=C(Nc1ccnc(-c2cc(-c3ccon3)n(Cc3ccccc3F)n2)n1)C1CC1 [Compound I-558],0.101 to 1
11,NC(=O)[C@H](CO)Nc1nc(-c2cc(-c3ccon3)n(Cc3ccccc3F)n2)ncc1F [Compound I-335],0.101 to 1
12,O=C(O)C1(CNc2nc(-c3cc(-c4ccon4)n(Cc4ccccc4F)n3)ncc2F)CC1 [Compound I-358],< 0.1
13,C[C@H]1CCCN(c2nc(-c3cc(-c4ccon4)n(Cc4ccccc4F)n3)ncc2F)[C@H]1C(=O)NS(=O)(=O)C1CC1 [Compound I-331],0.101 to 1
14,CC(O)(CNc1nc(-c2cc(-c3ccon3)n(Cc3ccccc3F)n2)ncc1F)C(F)(F)F (centres unmarked) [Compound I-634],< 0.1
15,CC(C)S(=O)(=O)Nc1nc(-c2cc(-c3ccon3)n(Cc3ccccc3F)n2)ncc1F [Compound I-505],0.101 to 1
16,OCC1(O)CCN(c2nc(-c3cc(-c4ccon4)n(Cc4ccccc4F)n3)ncc2F)CC1 [Compound I-434],< 0.1
17,COCCC(=O)Nc1ccnc(-c2cc(-c3ccon3)n(Cc3ccccc3F)n2)n1 [Compound I-547],0.101 to 1
18,CN(C)S(=O)(=O)NCC(=O)Nc1ccnc(-c2cc(-c3ccon3)n(Cc3ccccc3F)n2)n1 [Compound I-586],0.101 to 1
19,Cc1ccc(S(=O)(=O)NC(C)C(=O)Nc2ccnc(-c3cc(-c4ccon4)n(Cc4ccccc4F)n3)n2)cc1 (centres unmarked) [Compound I-548],> 1
20,COC(=O)NCC(Nc1nc(-c2cc(-c3ccon3)n(Cc3ccccc3F)n2)ncc1F)C(F)(F)F (centres unmarked) [Compound I-568],< 0.1
21,[2H]C([2H])(O)C([2H])([2H])Nc1nc(-c2cc(-c3ccon3)n(Cc3ccccc3F)n2)ncc1F [Compound I-495],< 0.1

row,Structure (SMILES),EC50 [µM]
1,O=S(=O)(Nc1nc(-c2cc(-c3ccon3)n(Cc3ccccc3F)n2)ncc1F)c1ccccc1 [Compound I-613],0.101 to 1
2,O=C(CC(F)(F)F)Nc1ccnc(-c2cc(-c3ccon3)n(Cc3ccccc3F)n2)n1 [Compound I-471],0.101 to 1
3,CC(=O)OCC(=O)Nc1ccnc(-c2cc(-c3ccon3)n(Cc3ccccc3F)n2)n1 [Compound I-497],0.101 to 1
4,O=S(=O)(CC(F)(F)F)Nc1ccnc(-c2cc(-c3ccon3)n(Cc3ccccc3F)n2)n1 [Compound I-444],0.101 to 1
5,O=C1C=C(O)CC(C(=O)Nc2ccnc(-c3cc(-c4ccon4)n(Cc4ccccc4F)n3)n2)C1 (centres unmarked) [Compound I-458],> 1
6,O=C(Nc1ccccc1)Nc1ccnc(-c2cc(-c3ccon3)n(Cc3ccccc3F)n2)n1 [Compound I-583],> 1
7,O=C(Nc1ccnc(-c2cc(-c3ccon3)n(Cc3ccccc3F)n2)n1)c1ccc[nH]1 [Compound I-550],> 1
8,O=C(NC1CN(c2nc(-c3cc(-c4ccon4)n(Cc4ccccc4F)n3)ncc2F)C1)C(F)(F)F [Compound I-387],< 0.1
9,O=C(O)C1(c2ccc(Nc3nc(-c4cc(-c5ccon5)n(Cc5ccccc5F)n4)ncc3F)cc2)CC1 [Compound I-360],< 0.1
10,CC(C)(C(=O)Nc1nc(-c2cc(-c3ccon3)n(Cc3ccccc3F)n2)ncc1F)S(C)(=O)=O [Compound I-582],> 1
11,O=C(O)[C@H]1CCC[C@@H](Nc2nc(-c3cc(-c4ccon4)n(Cc4ccccc4F)n3)ncc2F)C1 [Compound I-380],< 0.1
12,CS(=O)(=O)CCNc1nc(-c2cc(-c3ccon3)n(Cc3ccccc3F)n2)ncc1F [Compound I-487],< 0.1
13,CN(CC1(C(=O)O)CC1)c1nc(-c2cc(C#N)n(Cc3ccccc3F)n2)ncc1F [Compound I-480],0.101 to 1
14,Oc1c(F)cc(CNc2nc(-c3cc(-c4ccon4)n(Cc4ccccc4F)n3)ncc2F)cc1F [Compound I-317],< 0.1
15,CC(=O)NS(=O)(=O)C1CCN(c2nc(-c3cc(-c4ccon4)n(Cc4ccccc4F)n3)ncc2F)CC1 [Compound I-426],< 0.1
16,CC(C)C(Nc1nc(-c2cc(-c3ccon3)n(Cc3ccccc3F)n2)ncc1F)C(=O)NC1CC1 (centres unmarked) [Compound I-508],< 0.1
17,NC(=O)CNc1nc(-c2cc(-c3ccon3)n(Cc3ccccc3F)n2)ncc1F [Compound I-417],0.101 to 1
18,O[C@@H]1CN(c2nc(-c3cc(-c4ccon4)n(Cc4ccccc4F)n3)ncc2F)CC[C@@H]1O [Compound I-350],< 0.1
19,O=C(Nc1ccnc(-c2cc(-c3ccon3)n(Cc3ccccc3F)n2)n1)C1(OCc2ccccc2)CC1 [Compound I-461],> 1
20,CC(C(=O)Nc1ccnc(-c2cc(-c3ccon3)n(Cc3ccccc3F)n2)n1)S(C)(=O)=O (centres unmarked) [Compound I-587],0.101 to 1
21,O=S(=O)(Nc1nc(-c2cc(-c3ccon3)n(Cc3ccccc3F)n2)ncc1F)C1CC1 [Compound I-610],0.101 to 1

row,Structure (SMILES),EC50 [µM]
1,O=C(Nc1ccnc(-c2cc(-c3ccon3)n(Cc3ccccc3F)n2)n1)c1cc(C2CC2)n[nH]1 [Compound I-564],> 1
2,O=C(CC(O)(C(F)(F)F)C(F)(F)F)Nc1ccnc(-c2cc(-c3ccon3)n(Cc3ccccc3F)n2)n1 [Compound I-490],0.101 to 1
3,O=C(NS(=O)(=O)C1CCN(c2nc(-c3cc(-c4ccon4)n(Cc4ccccc4F)n3)ncc2F)C1)C1CC1 (centres unmarked) [Compound I-429],< 0.1
4,O=S1(=O)Cc2nc(-c3cc(-c4ccon4)n(Cc4ccccc4F)n3)nc(O)c2C1 [Compound I-628],> 1
5,OCCN(CCO)c1nc(-c2cc(-c3ccon3)n(Cc3ccccc3F)n2)ncc1F [Compound I-428],< 0.1
6,N#Cc1cc(-c2ncc(F)c(NCC(O)(C(F)(F)F)C(F)(F)F)n2)nn1Cc1ccccc1F [Compound I-474],> 1
7,OC(C1CN(c2nc(-c3cc(-c4ccon4)n(Cc4ccccc4F)n3)ncc2F)C1)(C(F)(F)F)C(F)(F)F [Compound I-357],> 1
8,O=c1c(O)c(Nc2ccnc(-c3cc(-c4ccon4)n(Cc4ccccc4F)n3)n2)c1=O [Compound I-402],> 1
9,CS(=O)(=O)NCC(O)CNc1nc(-c2cc(-c3ccon3)n(Cc3ccccc3F)n2)ncc1F (centres unmarked) [Compound I-349],< 0.1
10,CC(C)(C)OC(=O)NCCNc1nc(-c2cc(-c3ccon3)n(Cc3ccccc3F)n2)ncc1F [Compound I-390],< 0.1
11,O=S(=O)(CCNc1nc(-c2cc(-c3ccon3)n(Cc3ccccc3F)n2)ncc1F)C(F)(F)F [Compound I-514],< 0.1
12,Cc1cc(-c2ncc(F)c(NCC(O)(C(F)(F)F)C(F)(F)F)n2)nn1Cc1ccccc1F [Compound I-414],> 1
13,NC(=O)C1CCC(=O)N1c1nc(-c2cc(-c3ccon3)n(Cc3ccccc3F)n2)ncc1F (centres unmarked) [Compound I-534],> 1
14,O=C(NC1CC1)C(Nc1nc(-c2cc(-c3ccon3)n(Cc3ccccc3F)n2)ncc1F)C(F)(F)F (centres unmarked) [Compound I-493],0.101 to 1
15,O=C1OCC(C(F)(F)F)N1c1ccnc(-c2cc(-c3ccon3)n(Cc3ccccc3F)n2)n1 (centres unmarked) [Compound I-504],> 1
16,CS(=O)(=O)NCCC(Nc1nc(-c2cc(-c3ccon3)n(Cc3ccccc3F)n2)ncc1F)C(F)(F)F (centres unmarked) [Compound I-544],< 0.1
17,Nc1cnc(-c2cc(-c3ccon3)n(Cc3ccccc3F)n2)nc1NCC(O)(C(F)(F)F)C(F)(F)F [Compound I-484],0.101 to 1
18,O=C(Nc1ccnc(-c2cc(-c3ccon3)n(Cc3ccccc3F)n2)n1)c1cccs1 [Compound I-561],> 1
19,CC(C)N(C[C@H](O)CO)c1nc(-c2cc(-c3ccon3)n(Cc3ccccc3F)n2)ncc1F [Compound I-323],0.101 to 1
